# Data published in the supplement of paper PMC10307832.
# How the values were obtained:
# Experiment in all cases: relative viability (nuclei count vs DMSO), 5 days (fraction); higher = more cells survive
# ABC-1 = test system: ABC-1
# In short: (§1)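 A single step with final 0.05% Triton X-100, 1% formaldehyde and 1 ug/ml Hoechst fixed the cells and stained nuclei 5 days after treatment. Lung cancer cell lines in 1536-well plates had been treated by pin tool the day after seeding with one drug alone or a fixed anchor-drug dose plus five library-drug doses (not always all listed) in √10 steps, and nuclei were counted on 4× images. Relative viability is the ratio of nuclei in treated wells to nuclei in vehicle wells, taken as the median of duplicate plates.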
# COR-L23 = test system: COR-L23
# In short: as §1
# EPLC-272H = test system: EPLC-272H
# In short: as §1
# HARA = test system: HARA
# In short: as §1
# HCC-15 = test system: HCC-15
# In short: as §1
# HCC-44 = test system: HCC-44
# In short: as §1
# HOP-62 = test system: HOP-62
# In short: as §1
# LC-2-ad = test system: LC-2-ad
# In short: as §1
# LU99A = test system: LU99A
# In short: as §1
# NCI-H1355 = test system: NCI-H1355
# In short: as §1
# NCI-H1651 = test system: NCI-H1651
# In short: as §1
# NCI-H1915 = test system: NCI-H1915
# In short: as §1
# NCI-H1993 = test system: NCI-H1993
# In short: as §1
# NCI-H2023 = test system: NCI-H2023
# In short: as §1
# NCI-H2085 = test system: NCI-H2085
# In short: as §1
# NCI-H2126 = test system: NCI-H2126
# In short: as §1
# NCI-H2347 = test system: NCI-H2347
# In short: as §1
# NCI-H650 = test system: NCI-H650
# In short: as §1
# NCI-H838 = test system: NCI-H838
# In short: as §1
# PC-14 = test system: PC-14
# In short: as §1
# SW 1573 = test system: SW 1573
# In short: as §1
# UMC-11 = test system: UMC-11
# In short: as §1
structure (smiles),measurement,setting,value
Cc1sc2c(c1C)C(c1ccc(Cl)cc1)=N[C@@H](CC(=O)OC(C)(C)C)c1nnc(C)n1-2 [JQ1] + CS(=O)(=O)CCNCc1ccc(-c2ccc3ncnc(Nc4ccc(OCc5cccc(F)c5)c(Cl)c4)c3c2)o1 [Lapatinib] (partner 2 µM),relative viability,ABC-1; first compound 0.04 µM,1.11
same,relative viability,ABC-1; first compound 0.1265 µM,0.82
same,relative viability,ABC-1; first compound 0.4 µM,1.04
same,relative viability,ABC-1; first compound 1.265 µM,0.992
same,relative viability,ABC-1; first compound 4 µM,0.727
same,relative viability,COR-L23; first compound 0.04 µM,0.926
same,relative viability,COR-L23; first compound 0.1265 µM,0.782
same,relative viability,COR-L23; first compound 0.4 µM,0.942
same,relative viability,COR-L23; first compound 1.265 µM,0.773
same,relative viability,COR-L23; first compound 4 µM,0.623
same,relative viability,EPLC-272H; first compound 0.04 µM,0.937
same,relative viability,EPLC-272H; first compound 0.1265 µM,0.98
same,relative viability,EPLC-272H; first compound 0.4 µM,0.994
same,relative viability,EPLC-272H; first compound 1.265 µM,0.519
same,relative viability,EPLC-272H; first compound 4 µM,0.5
same,relative viability,HARA; first compound 0.04 µM,0.871
same,relative viability,HARA; first compound 0.1265 µM,0.559
same,relative viability,HARA; first compound 0.4 µM,0.642
same,relative viability,HARA; first compound 1.265 µM,0.317
same,relative viability,HARA; first compound 4 µM,0.165
same,relative viability,HCC-15; first compound 0.04 µM,0.778
same,relative viability,HCC-15; first compound 0.4 µM,0.85
same,relative viability,HCC-15; first compound 1.265 µM,0.655
same,relative viability,HCC-15; first compound 4 µM,0.592
same,relative viability,HCC-44; first compound 0.04 µM,1.07
same,relative viability,HCC-44; first compound 0.1265 µM,0.849
same,relative viability,HCC-44; first compound 0.4 µM,0.795
same,relative viability,HCC-44; first compound 1.265 µM,0.488
same,relative viability,HCC-44; first compound 4 µM,0.532
same,relative viability,HOP-62; first compound 0.04 µM,1.07
same,relative viability,HOP-62; first compound 0.1265 µM,0.724
same,relative viability,HOP-62; first compound 0.4 µM,0.636
same,relative viability,HOP-62; first compound 1.265 µM,0.241
same,relative viability,HOP-62; first compound 4 µM,0.126
same,relative viability,LC-2-ad; first compound 0.04 µM,0.92
same,relative viability,LC-2-ad; first compound 0.1265 µM,0.436
same,relative viability,LC-2-ad; first compound 0.4 µM,0.409
same,relative viability,LC-2-ad; first compound 1.265 µM,0.158
same,relative viability,LC-2-ad; first compound 4 µM,0.155
same,relative viability,LU99A; first compound 0.04 µM,1.14
same,relative viability,LU99A; first compound 0.1265 µM,0.933
same,relative viability,LU99A; first compound 0.4 µM,0.902
same,relative viability,LU99A; first compound 1.265 µM,0.316
same,relative viability,LU99A; first compound 4 µM,0.217
same,relative viability,NCI-H1355; first compound 0.04 µM,0.967
same,relative viability,NCI-H1355; first compound 0.1265 µM,0.973
same,relative viability,NCI-H1355; first compound 0.4 µM,0.956
same,relative viability,NCI-H1355; first compound 1.265 µM,0.765
same,relative viability,NCI-H1355; first compound 4 µM,0.596
same,relative viability,NCI-H1651; first compound 0.04 µM,0.656
same,relative viability,NCI-H1651; first compound 0.1265 µM,0.706
same,relative viability,NCI-H1651; first compound 0.4 µM,0.481
same,relative viability,NCI-H1651; first compound 1.265 µM,0.365
same,relative viability,NCI-H1651; first compound 4 µM,0.408
same,relative viability,NCI-H1915; first compound 0.04 µM,0.976
same,relative viability,NCI-H1915; first compound 0.1265 µM,0.574
same,relative viability,NCI-H1915; first compound 0.4 µM,0.917
same,relative viability,NCI-H1915; first compound 1.265 µM,0.582
same,relative viability,NCI-H1915; first compound 4 µM,0.315
same,relative viability,NCI-H1993; first compound 0.04 µM,0.825
same,relative viability,NCI-H1993; first compound 0.1265 µM,0.812
same,relative viability,NCI-H1993; first compound 0.4 µM,0.676
same,relative viability,NCI-H1993; first compound 1.265 µM,0.702
same,relative viability,NCI-H1993; first compound 4 µM,0.65
same,relative viability,NCI-H2023; first compound 0.04 µM,0.738
same,relative viability,NCI-H2023; first compound 0.1265 µM,0.463
same,relative viability,NCI-H2023; first compound 0.4 µM,0.443
same,relative viability,NCI-H2023; first compound 1.265 µM,0.334
same,relative viability,NCI-H2023; first compound 4 µM,0.258
same,relative viability,NCI-H2085; first compound 0.04 µM,0.748
same,relative viability,NCI-H2085; first compound 0.1265 µM,0.723
same,relative viability,NCI-H2085; first compound 0.4 µM,0.621
same,relative viability,NCI-H2085; first compound 1.265 µM,0.409
same,relative viability,NCI-H2085; first compound 4 µM,0.396
same,relative viability,NCI-H2126; first compound 0.04 µM,0.759
same,relative viability,NCI-H2126; first compound 0.1265 µM,0.746
same,relative viability,NCI-H2126; first compound 0.4 µM,0.755
same,relative viability,NCI-H2126; first compound 1.265 µM,0.604
same,relative viability,NCI-H2126; first compound 4 µM,0.68
same,relative viability,NCI-H2347; first compound 0.04 µM,0.934
same,relative viability,NCI-H2347; first compound 0.1265 µM,0.623
same,relative viability,NCI-H2347; first compound 0.4 µM,0.831
same,relative viability,NCI-H2347; first compound 1.265 µM,0.701
same,relative viability,NCI-H2347; first compound 4 µM,0.679
same,relative viability,NCI-H650; first compound 0.04 µM,0.959
same,relative viability,NCI-H650; first compound 0.1265 µM,0.527
same,relative viability,NCI-H650; first compound 0.4 µM,0.647
same,relative viability,NCI-H650; first compound 1.265 µM,0.259
same,relative viability,NCI-H650; first compound 4 µM,0.295
same,relative viability,NCI-H838; first compound 0.04 µM,0.991
same,relative viability,NCI-H838; first compound 0.1265 µM,0.462
same,relative viability,NCI-H838; first compound 0.4 µM,0.454
same,relative viability,NCI-H838; first compound 1.265 µM,0.237
same,relative viability,NCI-H838; first compound 4 µM,0.191
same,relative viability,PC-14; first compound 0.04 µM,0.307
same,relative viability,PC-14; first compound 0.1265 µM,0.245
same,relative viability,PC-14; first compound 0.4 µM,0.352
same,relative viability,PC-14; first compound 1.265 µM,0.284
same,relative viability,PC-14; first compound 4 µM,0.211
same,relative viability,SW 1573; first compound 0.04 µM,1.13
same,relative viability,SW 1573; first compound 0.1265 µM,0.886
same,relative viability,SW 1573; first compound 0.4 µM,0.881
same,relative viability,SW 1573; first compound 1.265 µM,0.61
same,relative viability,SW 1573; first compound 4 µM,0.512
same,relative viability,UMC-11; first compound 0.04 µM,0.876
same,relative viability,UMC-11; first compound 0.1265 µM,0.757
same,relative viability,UMC-11; first compound 0.4 µM,0.419
same,relative viability,UMC-11; first compound 1.265 µM,0.255
same,relative viability,UMC-11; first compound 4 µM,0.271
